Assay results reported in patent US7303921B2, “Method to assay coenzyme Q10 in blood plasma or blood serum” (priority 2002, dated 2007).
“And” between values parts separate entries of the source, which are not always exact repeats. Equal entries are not always repeated.

How the values were obtained:
[1] = Stability of total CoQ10 in plasma at different storage conditions and times; format: physicochemical, human
Description: In order to check the stability of total CoQ10 in plasma, aliquots of 3 different samples were kept for 3 days at 4° C., room temperature (22° C.) and at −20° C. respectively.
(§1) Description of the Analysis. 200 μl of a blood plasma sample were supplemented with 50 μl of a 1,4 benzoquinone solution (2 mg/ml) in a test tube and vortexed for 10 seconds. After 10 minutes, 1 ml of n-propanol was added. The test tube was vortexed for 10 seconds and centrifuged at 10,000 rpm for 2 minutes in order to spin down the protein precipitate. 200 μl of the supernatant were injected into the HPLC. […] Mobile phase was constituted by ethanol-methanol (65%-35%) and the flux was 1 ml/min. UV detection was performed at 275 nm.

[2] = Stability of the n-propanol extract (supernatant) of plasma CoQ10; format: physicochemical
Description: as §1
For practical reasons the propanol extract can be kept in the refrigerator up to 3 days before injection into the HPLC. Several samples were checked by analysing them 1 hour, 1, 2 and 4 days after drawing the blood, keeping the samples at −20° C., 0-4° C., or +22° C. (room temperature) and the results, as far as total CoQ10 was concerned, were the same for the same sample whether kept at different temperatures or for different lengths of time (presumably only the reduced/oxidised CoQ10 ratio changed). There was no need to add any stabilizing agent to the sample.

SMILES: COC1=C(OC)C(=O)C(C/C=C(\C)CC/C=C(\C)CC/C=C(\C)CC/C=C(\C)CC/C=C(\C)CC/C=C(\C)CC/C=C(\C)CC/C=C(\C)CC/C=C(\C)CCC=C(C)C)=C(C)C1=O [CoQ10]
- Mean total CoQ10 ([1]; 0-4° C., 72 h, plasma samples A, B, C): 1.82 µM and 1.11 µM
- total CoQ10 result after storage of samples ([1]; 1 hour, 1, 2 and 4 days after drawing the blood, −20° C., 0-4° C. or +22° C., no stabilizing agent): the same
- stability of total CoQ10 in plasma ([1]; even when kept at room temperature): practically stable for at least three days
- stability of supernatant (propanol extract) ([2]; capped test tube, kept at 22° C.): stable for up to three days
- time the propanol extract can be kept before injection into the HPLC ([2]; in the refrigerator): up to 3 days
